Measured values published in patent publication US20230352114A1, “METHODS OF PROVIDING MODULATORS OF TAU AGGREGATION” (GTInvent Limited, priority 2020, published 2023).
pEC50: −log10 of the molar value. “Also recorded” adds a separate entry of the source.

Legend:
dGAE [1] = target: T1, dGAE (Homo sapiens, UniProt P10636); experiment: protease digestion (Proteinase K / Pronase E) of assembled dGAE, SDS-PAGE; format: biochemical; details: 100 μM dGAE, 10 mM DTT, ratios up to 1:5, 72 hours
T1 construct: Recombinant tau297-391 (dGAE) was produced and purified from; made in house; host or cells: E. coli
Protocol: Protease digestion: 100 μM dGAE with 10 mM DTT in phosphate buffer (20 mM, pH 7.4), with or without MTC at ratios up to 1:5 was agitated at 700 rpm, 37° C. for 72 hours. 10 μg aliquots were digested with increasing concentrations of Proteinase K (PK), Pronase E (PE), or left untreated. The digestion was carried out at 37° C. for 1 hour then the reaction was stopped with 1 mM Pefabloc and samples were placed on ice for 5 minutes. Sample buffer without any reducing agent was added, incubated for 5 minutes at room temperature then loaded onto a gel.
Soluble or fibrils of dGAE (100 μM) in reducing conditions (10 mM DTT) were incubated with increasing concentrations of proteinase K or Pronase E then samples were run on SDS-PAGE.

dGAE [2] = target: T1, dGAE; experiment: sandwich ELISA epitope occlusion assay of dGAE aggregates with core region scAbs; format: biochemical; details: dGAE with DTT, 1:5 ratio, 24 h at 37° C.; total and supernatant samples
Source text: The truncated core repeat domain dGAE (297-391), is the predominant fragment that constitutes bulk of the PHF core in AD (Wischik et al, 1988). During dGAE aggregation in vitro, scAb binding regions on dGAE are ‘hidden’ or ‘occluded’ which leads to a loss of immunoreactivity in aggregation samples. Here we have shown the occlusion of binding regions in aggregated dGAE samples and the recovery of immunoreactivity in the presence of LMTM, a tau-aggregation inhibitor. For preparing the aggregates, 10 μl 10 mM DTT was added to 1000 μl 100 μM dGAE and agitated with/without LMTM (1:5 ratio) at 700 rpm for 24 h at 37° C. Following overnight agitation, one third of each sample was kept aside as ‘total’ and the rest was spun down at 16000×g for 30 min and separated into ‘supernatant’ and ‘pellet’. The pellet was then resuspended in half the original volume for further experiments. The immunoreactivities of core region specific scAbs towards dGAE aggregates formed with/without LMTM was tested using a sandwich ELISA format using a ‘E’ specific monoclonal antibody 423 mAb. […] ELISA plates were coated with 10 μg/ml 423 mAb and blocked as normal. Doubling dilutions of dGAE aggregate ‘total’, ‘supernatant’ and ‘pellet’ samples at 10 μg/ml starting concentration were added to designated wells in doubling dilutions in 1×PBS. dGAE monomer (non-aggregated) was included as assay control. […]

Tau aggregation = experiment: cell-based tau aggregation assay (Rickard et al., 2017); details: tau aggregation inhibition
Protocol: Selected or designed compounds may further be synthesised or obtained and tested for their ability to modulate Tau aggregation, for example in a cell-based aggregation assay as described in Rickard et al., 2017.
These compounds were assessed in a cell-based Tau aggregation assay. […] The substituents were designed to test the required strength of hydrogen bonds with the pocket, as well as optimal orientation for hydrophobic and pi interactions.

[3] = clinical evidence; fold lower; cited from earlier work

T1 sequence (P10636 614-708): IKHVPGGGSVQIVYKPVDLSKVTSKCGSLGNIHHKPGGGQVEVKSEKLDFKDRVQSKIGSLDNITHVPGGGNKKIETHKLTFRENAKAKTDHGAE

SMILES	formation of protease resistant core of dGAE (dGAE [1])	immunoreactivity of core region scAbs to dGAE aggregated in presence of the compound (dGAE [2])	pEC50 (Tau aggregation)	effective dose relative to minimum effective dose of the oxidized MT+ form [3] [fold]
CN(C)c1ccc2c(c1)Sc1cc(N(C)C)ccc1N2 [LMT, leuco-methylthioninium]	loss of protease resistance; also recorded: prevents the formation of a protease resistant core	loss of immunoreactivity could be prevented	7.02	–
CN(C)c1ccc2c(c1)Sc1cc(N(C)C)ccc1N2.CS(=O)(=O)O.CS(=O)(=O)O [LMTM, hydromethylthioninium mesylate]	–	increase in immunoreactivity; also recorded: increased binding	–	20
